Values of other authors, collected in patent US7947714B2, “Piperidine glycine transporter inhibitors” (Merck, Sharp & Dohme Corp., priority 2005, dated 2011).

Experiments:
NMDA receptor = settings: rat; blockade of GlyT1
[1] = mice
[2] = high doses, oral, add-on to standard neuroleptic therapy
[3] = patients suffering from schizophrenia, poorly responsive to antipsychotic drugs

Q: For `CN(CCC(Oc1ccc(-c2ccccc2)cc1)c1ccc(F)cc1)CC(=O)O` (stereo not shown) [NFPS, (N-[3-(4′-fluorophenyl)-3-(4′-phenylphenoxy)propyl])sarcosine], which “effect on NMDA receptor activity and NMDA receptor-dependent long-term potentiation” value (NMDA receptor) is on record?
A: potentiates NMDA receptor activity and NMDA receptor-dependent long-term potentiation

Q: And the “effect on pre-pulse inhibition (measure of sensory gating)” value [1]?
A: enhance pre-pulse inhibition

Q: Which “effect on symptoms of schizophrenia” value [2] does the source give for `NCC(=O)O` [glycine] here?
A: improvement of the symptoms

Q: Which “effect on positive, negative and cognitive symptoms of schizophrenia” value [3] does the source give for `CNCC(=O)O` [sarcosine] here?
A: beneficial effect was observed on positive, negative and cognitive symptoms
